What was measured:
Test in all cases: radiometric filter-binding kinase assay, Kinase HotSpot
Details in all cases: compound 0.5 µM; ATP 10 µM
TSSK1B (human) = TSSK1B (human) (UniProt Q9BXA7)
CSNK2A2 (human) = CSNK2A2 (human) (UniProt P19784)
STK24 (human) = STK24 (human) (UniProt Q9Y6E0)
TTK (human) = TTK (human) (UniProt P33981)
LTK (human) = LTK (human) (UniProt P29376)
TGFBR2 (human) = TGFBR2 (human) (UniProt P37173)
SRPK2 (human) = SRPK2 (human) (UniProt P78362)
CHEK1 (human) = CHEK1 (human) (UniProt O14757)
DMPK (human) = DMPK (human) (UniProt Q09013)
TLK2 (human) = TLK2 (human) (UniProt Q86UE8)
LCK (human) = LCK (human) (UniProt P06239)
ULK3 (human) = ULK3 (human) (UniProt Q6PHR2)
EPHA6 (human) = EPHA6 (human) (UniProt Q9UF33)
CDC42BPA (human) = CDC42BPA (human) (UniProt Q5VT25)
HIPK4 (human) = HIPK4 (human) (UniProt Q8NE63)
BRAF (human) = BRAF (human) (UniProt P15056)
ABL1 (human) = ABL1 (human) (UniProt P00519)
[1] = tested on: ARAF (human), P10398 [Y301D/Y302D]
PIM1 (human) = PIM1 (human) (UniProt P11309)
ADRBK1 (human) = ADRBK1 (human) (UniProt P25098)
RPS6KB2 (human) = RPS6KB2 (human) (UniProt Q9UBS0)
PDGFRB (human) = PDGFRB (human) (UniProt P09619)
CAMKK2 (human) = CAMKK2 (human) (UniProt Q96RR4)
CAMK1D (human) = CAMK1D (human) (UniProt Q8IU85)
PRKACG (human) = PRKACG (human) (UniProt P22612)
PRKCG (human) = PRKCG (human) (UniProt P05129)
PTK6 (human) = PTK6 (human) (UniProt Q13882)
MAPK12 (human) = MAPK12 (human) (UniProt P53778)
TYRO3 (human) = TYRO3 (human) (UniProt Q06418)
MYO3B (human) = MYO3B (human) (UniProt Q8WXR4)
OXSR1 (human) = OXSR1 (human) (UniProt O95747)
FGFR3 (human) = FGFR3 (human) (UniProt P22607)
EPHB2 (human) = EPHB2 (human) (UniProt P29323)
STK38 (human) = STK38 (human) (UniProt Q15208)
ACVRL1 (human) = ACVRL1 (human) (UniProt P37023)
NEK4 (human) = NEK4 (human) (UniProt P51957)
DYRK1A (human) = DYRK1A (human) (UniProt Q13627)
IRAK1 (human) = IRAK1 (human) (UniProt P51617)
DAPK1 (human) = DAPK1 (human) (UniProt P53355)
NEK7 (human) = NEK7 (human) (UniProt Q8TDX7)
EGFR (human) = EGFR (human) (UniProt P00533)

TGFBR2 (human), sequence (P37173 whole entry, looked up): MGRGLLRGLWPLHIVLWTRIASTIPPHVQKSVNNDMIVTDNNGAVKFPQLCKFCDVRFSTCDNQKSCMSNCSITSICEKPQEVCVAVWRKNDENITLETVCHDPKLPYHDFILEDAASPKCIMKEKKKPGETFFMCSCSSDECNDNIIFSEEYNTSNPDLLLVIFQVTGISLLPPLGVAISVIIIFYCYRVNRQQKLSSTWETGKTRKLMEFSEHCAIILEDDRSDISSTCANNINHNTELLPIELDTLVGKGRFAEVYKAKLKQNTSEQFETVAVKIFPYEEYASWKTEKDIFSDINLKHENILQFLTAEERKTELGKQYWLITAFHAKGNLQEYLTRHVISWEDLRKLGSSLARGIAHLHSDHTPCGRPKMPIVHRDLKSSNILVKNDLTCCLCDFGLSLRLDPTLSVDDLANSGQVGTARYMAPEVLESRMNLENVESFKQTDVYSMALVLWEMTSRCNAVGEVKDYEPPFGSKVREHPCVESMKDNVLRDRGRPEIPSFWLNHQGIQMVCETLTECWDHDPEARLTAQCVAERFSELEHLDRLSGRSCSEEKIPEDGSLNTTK
ULK3 (human), sequence (Q6PHR2 whole entry, looked up): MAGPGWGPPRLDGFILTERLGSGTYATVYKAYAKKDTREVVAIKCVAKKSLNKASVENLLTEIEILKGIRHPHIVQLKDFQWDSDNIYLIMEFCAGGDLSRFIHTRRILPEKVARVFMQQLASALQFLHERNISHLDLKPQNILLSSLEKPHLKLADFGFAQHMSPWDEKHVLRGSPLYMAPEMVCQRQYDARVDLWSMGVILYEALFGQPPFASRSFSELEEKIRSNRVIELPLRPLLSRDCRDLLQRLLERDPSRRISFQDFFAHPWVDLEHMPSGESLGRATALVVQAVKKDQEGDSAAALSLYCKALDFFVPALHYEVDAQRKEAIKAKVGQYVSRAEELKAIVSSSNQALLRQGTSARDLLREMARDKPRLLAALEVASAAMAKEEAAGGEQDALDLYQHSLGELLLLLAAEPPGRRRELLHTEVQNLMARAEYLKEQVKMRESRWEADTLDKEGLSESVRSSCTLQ
PRKACG (human), sequence (P22612 whole entry, looked up): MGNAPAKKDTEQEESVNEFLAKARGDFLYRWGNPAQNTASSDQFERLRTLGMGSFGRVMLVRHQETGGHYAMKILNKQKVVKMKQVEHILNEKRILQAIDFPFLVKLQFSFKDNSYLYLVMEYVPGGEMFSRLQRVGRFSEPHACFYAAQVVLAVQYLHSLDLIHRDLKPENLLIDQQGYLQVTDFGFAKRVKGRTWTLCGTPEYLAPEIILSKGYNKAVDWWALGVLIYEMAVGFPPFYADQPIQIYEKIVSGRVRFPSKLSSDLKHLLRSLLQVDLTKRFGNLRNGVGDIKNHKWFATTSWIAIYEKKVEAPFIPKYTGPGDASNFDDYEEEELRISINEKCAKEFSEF
LTK (human), sequence (P29376 whole entry, looked up): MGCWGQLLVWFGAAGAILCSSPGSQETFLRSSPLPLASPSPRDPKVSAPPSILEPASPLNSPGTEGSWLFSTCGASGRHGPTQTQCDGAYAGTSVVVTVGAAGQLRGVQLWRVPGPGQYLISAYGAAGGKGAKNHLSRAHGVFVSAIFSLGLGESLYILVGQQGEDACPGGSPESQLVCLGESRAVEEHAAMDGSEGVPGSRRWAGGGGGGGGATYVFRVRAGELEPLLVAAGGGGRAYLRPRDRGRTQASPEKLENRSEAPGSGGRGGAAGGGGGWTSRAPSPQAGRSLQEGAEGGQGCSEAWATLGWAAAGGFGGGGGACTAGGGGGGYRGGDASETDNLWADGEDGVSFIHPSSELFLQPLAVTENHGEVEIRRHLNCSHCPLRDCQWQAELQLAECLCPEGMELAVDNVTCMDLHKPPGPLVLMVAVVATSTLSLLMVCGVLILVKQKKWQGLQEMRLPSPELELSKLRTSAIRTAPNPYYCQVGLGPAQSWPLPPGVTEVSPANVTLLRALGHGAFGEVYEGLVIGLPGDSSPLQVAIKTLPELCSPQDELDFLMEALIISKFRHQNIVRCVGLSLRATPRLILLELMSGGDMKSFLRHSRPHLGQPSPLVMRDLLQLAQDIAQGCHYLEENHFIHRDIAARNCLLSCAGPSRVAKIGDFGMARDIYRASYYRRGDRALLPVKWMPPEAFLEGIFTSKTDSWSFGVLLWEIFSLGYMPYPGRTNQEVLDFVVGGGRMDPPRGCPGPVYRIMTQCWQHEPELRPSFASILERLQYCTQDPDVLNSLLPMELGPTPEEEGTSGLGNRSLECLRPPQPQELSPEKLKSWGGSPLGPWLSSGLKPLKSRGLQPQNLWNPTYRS
DAPK1 (human), sequence (P53355 whole entry, looked up): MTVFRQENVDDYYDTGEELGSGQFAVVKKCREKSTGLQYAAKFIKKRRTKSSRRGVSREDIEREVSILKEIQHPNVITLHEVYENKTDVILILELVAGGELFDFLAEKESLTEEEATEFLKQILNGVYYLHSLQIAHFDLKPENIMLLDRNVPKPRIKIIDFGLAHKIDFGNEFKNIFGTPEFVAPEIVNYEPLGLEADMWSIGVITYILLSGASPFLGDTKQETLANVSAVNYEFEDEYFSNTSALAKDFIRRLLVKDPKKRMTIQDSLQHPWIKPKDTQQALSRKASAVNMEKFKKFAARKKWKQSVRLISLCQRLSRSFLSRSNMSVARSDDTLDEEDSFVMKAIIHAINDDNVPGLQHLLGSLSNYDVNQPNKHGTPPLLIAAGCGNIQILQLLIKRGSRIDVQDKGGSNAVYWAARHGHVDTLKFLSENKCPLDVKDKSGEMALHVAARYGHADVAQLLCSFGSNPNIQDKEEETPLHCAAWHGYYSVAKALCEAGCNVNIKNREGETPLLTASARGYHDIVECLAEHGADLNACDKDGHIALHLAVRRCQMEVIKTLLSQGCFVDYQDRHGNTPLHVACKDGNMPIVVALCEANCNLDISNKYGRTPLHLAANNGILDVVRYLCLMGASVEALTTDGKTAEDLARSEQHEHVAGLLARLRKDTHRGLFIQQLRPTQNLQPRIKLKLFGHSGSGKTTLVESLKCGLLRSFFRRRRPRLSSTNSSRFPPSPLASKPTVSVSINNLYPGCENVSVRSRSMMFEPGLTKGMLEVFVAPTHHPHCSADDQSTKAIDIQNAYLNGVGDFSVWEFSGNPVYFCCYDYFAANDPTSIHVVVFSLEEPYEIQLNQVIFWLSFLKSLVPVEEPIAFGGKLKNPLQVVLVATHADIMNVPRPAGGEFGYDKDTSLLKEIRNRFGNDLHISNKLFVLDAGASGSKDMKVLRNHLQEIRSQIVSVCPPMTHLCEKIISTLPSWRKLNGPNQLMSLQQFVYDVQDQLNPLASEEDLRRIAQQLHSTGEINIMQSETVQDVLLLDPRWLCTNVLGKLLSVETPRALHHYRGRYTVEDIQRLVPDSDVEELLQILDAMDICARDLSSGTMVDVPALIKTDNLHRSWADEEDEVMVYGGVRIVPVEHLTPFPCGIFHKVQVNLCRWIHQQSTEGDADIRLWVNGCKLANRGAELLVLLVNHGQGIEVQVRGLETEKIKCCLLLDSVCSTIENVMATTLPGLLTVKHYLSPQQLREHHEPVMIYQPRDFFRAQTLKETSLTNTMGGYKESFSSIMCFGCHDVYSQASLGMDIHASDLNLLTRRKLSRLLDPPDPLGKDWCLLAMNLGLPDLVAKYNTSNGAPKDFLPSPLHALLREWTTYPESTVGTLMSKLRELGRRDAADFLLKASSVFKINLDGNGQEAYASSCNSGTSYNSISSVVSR
NEK7 (human), sequence (Q8TDX7 whole entry, looked up): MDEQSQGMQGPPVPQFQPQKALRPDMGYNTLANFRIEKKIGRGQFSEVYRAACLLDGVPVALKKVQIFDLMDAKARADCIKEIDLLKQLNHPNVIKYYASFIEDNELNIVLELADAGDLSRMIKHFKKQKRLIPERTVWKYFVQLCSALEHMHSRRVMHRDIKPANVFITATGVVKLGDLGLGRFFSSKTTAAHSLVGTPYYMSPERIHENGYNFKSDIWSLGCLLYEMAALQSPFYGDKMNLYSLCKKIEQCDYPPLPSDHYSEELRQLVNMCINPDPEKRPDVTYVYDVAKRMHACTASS
STK38 (human), sequence (Q15208 whole entry, looked up): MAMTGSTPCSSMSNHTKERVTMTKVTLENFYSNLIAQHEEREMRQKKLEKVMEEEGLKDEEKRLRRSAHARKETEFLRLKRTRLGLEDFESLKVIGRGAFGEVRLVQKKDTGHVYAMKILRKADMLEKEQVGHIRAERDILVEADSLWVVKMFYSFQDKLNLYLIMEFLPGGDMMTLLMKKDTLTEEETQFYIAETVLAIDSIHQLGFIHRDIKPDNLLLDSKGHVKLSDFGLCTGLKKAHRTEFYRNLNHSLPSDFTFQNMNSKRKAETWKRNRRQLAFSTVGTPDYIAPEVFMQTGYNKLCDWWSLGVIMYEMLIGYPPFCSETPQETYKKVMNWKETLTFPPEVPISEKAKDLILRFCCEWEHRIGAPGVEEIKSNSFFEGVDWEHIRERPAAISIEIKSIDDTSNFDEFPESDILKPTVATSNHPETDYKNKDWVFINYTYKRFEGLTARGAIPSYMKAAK
CAMK1D (human), sequence (Q8IU85 whole entry, looked up): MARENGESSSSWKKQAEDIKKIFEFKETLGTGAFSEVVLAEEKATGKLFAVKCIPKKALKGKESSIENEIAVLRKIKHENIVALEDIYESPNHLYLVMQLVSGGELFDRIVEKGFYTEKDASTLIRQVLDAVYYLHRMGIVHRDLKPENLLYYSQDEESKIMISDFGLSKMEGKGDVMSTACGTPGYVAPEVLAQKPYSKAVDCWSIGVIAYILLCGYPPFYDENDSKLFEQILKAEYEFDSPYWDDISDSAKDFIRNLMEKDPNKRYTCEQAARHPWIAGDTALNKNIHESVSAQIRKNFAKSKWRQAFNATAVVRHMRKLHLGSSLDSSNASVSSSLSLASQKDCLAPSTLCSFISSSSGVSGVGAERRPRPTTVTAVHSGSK

Compound | residual activity (TSSK1B (human)) | residual activity (STK24 (human)) | residual activity (TTK (human)) | residual activity (LTK (human)) | residual activity (TGFBR2 (human)) | residual activity (SRPK2 (human)) | residual activity (CHEK1 (human)) | residual activity (DMPK (human)) | residual activity (TLK2 (human)) | residual activity (LCK (human)) | residual activity (ULK3 (human)) | residual activity (EPHA6 (human)) | residual activity (CDC42BPA (human)) | residual activity (HIPK4 (human)) | residual activity (BRAF (human)) | residual activity (ABL1 (human)) | residual activity [1] | residual activity (PIM1 (human)) | residual activity (ADRBK1 (human)) | residual activity (RPS6KB2 (human)) | further results
O=C(Nc1ccc(Cl)cc1)c1ccccc1NCc1ccncc1 | 103% | 92.6% | 102% | 104% | 90.1% | 85.1% | 96.4% | 103% | 97.3% | 93.3% | 84.7% | 89.8% | 90.5% | 103% | 90% | 99.7% | 91.4% | 98.9% | 98.2% | 105% | residual activity (CSNK2A2 (human)): 98.3%; residual activity (PDGFRB (human)): 45%; residual activity (CAMKK2 (human)): 93.9%; residual activity (CAMK1D (human)): 95.3%; residual activity (PRKACG (human)): 87.4%; residual activity (PRKCG (human)): 102%; residual activity (PTK6 (human)): 63.6%; residual activity (MAPK12 (human)): 97.3%; residual activity (TYRO3 (human)): 105%; residual activity (MYO3B (human)): 82%; residual activity (OXSR1 (human)): 96.8%; residual activity (FGFR3 (human)): 92.2%; residual activity (EPHB2 (human)): 84.7%; residual activity (STK38 (human)): 97.5%; residual activity (ACVRL1 (human)): 98.9%; residual activity (NEK4 (human)): 85.8%; residual activity (DYRK1A (human)): 97.1%; residual activity (IRAK1 (human)): 117%; residual activity (DAPK1 (human)): 99.9%; residual activity (NEK7 (human)): 103%
CS(=O)c1ccc(-c2nc(-c3ccc(F)cc3)c(-c3ccncc3)[nH]2)cc1 (centres undefined) | 108% | 99% | 99.9% | 101% | 144% | 102% | 97.3% | 103% | 96.5% | 95% | 83.2% | 57.2% | 94.3% | 93.5% | 78.8% | 97% | 42.7% | 103% | 101% | 97.2% | residual activity (PDGFRB (human)): 103%; residual activity (CAMKK2 (human)): 110%; residual activity (CAMK1D (human)): 105%; residual activity (PRKACG (human)): 107%; residual activity (PRKCG (human)): 90%; residual activity (PTK6 (human)): 54.2%; residual activity (MAPK12 (human)): 105%; residual activity (TYRO3 (human)): 97%; residual activity (MYO3B (human)): 104%; residual activity (OXSR1 (human)): 102%; residual activity (FGFR3 (human)): 97%; residual activity (EPHB2 (human)): 108%; residual activity (STK38 (human)): 105%; residual activity (ACVRL1 (human)): 97.7%; residual activity (NEK4 (human)): 98.2%; residual activity (DYRK1A (human)): 95.6%; residual activity (IRAK1 (human)): 129%; residual activity (DAPK1 (human)): 90.3%; residual activity (NEK7 (human)): 98.9%
CSc1nc(-c2ccc(F)cc2)c(-c2ccnc(NC(C)c3ccccc3)c2)[nH]1 (centres undefined) | 73.5% | 113% | 102% | 83.6% | 96.5% | 94.4% | 101% | 80% | 106% | 102% | 85.3% | 75.8% | 97.5% | 95.2% | 91.8% | 103% | 99% | 91.8% | 102% | 92.8% | residual activity (CSNK2A2 (human)): 88.8%; residual activity (PDGFRB (human)): 97.6%; residual activity (CAMKK2 (human)): 84%; residual activity (CAMK1D (human)): 91.7%; residual activity (PRKACG (human)): 115%; residual activity (PRKCG (human)): 101%; residual activity (PTK6 (human)): 96.8%; residual activity (TYRO3 (human)): 108%; residual activity (MYO3B (human)): 100%; residual activity (OXSR1 (human)): 88.2%; residual activity (FGFR3 (human)): 83.7%; residual activity (EPHB2 (human)): 85.4%; residual activity (STK38 (human)): 104%; residual activity (ACVRL1 (human)): 92.2%; residual activity (NEK4 (human)): 102%; residual activity (DYRK1A (human)): 97.9%; residual activity (IRAK1 (human)): 103%; residual activity (DAPK1 (human)): 101%; residual activity (EGFR (human)): 87.1%; residual activity (NEK7 (human)): 89.6%

From the kinase profiling compilation of Christmann-Franck et al. (2016)
